System: HD-Drosophila expressing mutant HTT97Q
Assay: Rough eye phenotype in HD-Drosophila (Gmr-HTT97Q)
Type: in vivo, Drosophila melanogaster
Conditions: 10 μM 6CR in media, 4-day-old progenies
Procedure: The Gmr-ga14-UAS-HTT97Q/cyo line expressing HTT97Q under the control of Gmr-gal4 in compound eyes was provided by MT SU (National Taiwan Normal University, Taipei, Taiwan). Fly stock was maintained and crossed at 25° C. on a standard cornmeal yeast agar medium.
In each compound treatment experiment, 15 Gmr-ga14-UAS-HTT97Q/cyo male flies were crossed with 15 Gmr-ga14-UAS-HTT-97Q/cyo females in a vial containing 10 mL of media supplemented with the testing compound at a final concentration of 10 μM 6CR (Sigma) or/and 100 μM Tropolone (Sigma). 6-chloropurine riboside (6CR) is a chemical reagent that inhibits the activity of SUPT4H by preventing the complex formation of SUPT4H/SUPT5H (Patent No.: US2018/0064744A1). Parent flies were removed after 7 days, and 4-day-old progenies carrying one Gmr-ga14-UAS-HTT97Q allele were collected for eye morphology examination. […] In each treatment group, flies were analyzed and normalized with control flies. […]
Please refer to FIG. 8. […] After parent fly removal, the 4-day-old progenies carrying one Gmr-ga14-UAS-HTT97Q allele were collected and analyzed for eye morphology. […] 4-day-old progenies as described above were collected and analyzed the levels of mutant HTT by Western blotting. α-tubulin was included and served as a loading control. […]

Question: For OC[C@H]1O[C@@H](n2cnc3c(Cl)ncnc32)[C@H](O)[C@@H]1O [6-chloropurine riboside (6CR), 6-chloropurine riboside], which “rescue of rough eye phenotype, 6CR alone” value is on record?
Answer: rescue effect
